Tests used:
Format in all cases: cell-based
HeLa = assay: MTT cytotoxicity assay, HeLa; conditions: Homo sapiens, 48 h, mean ± SD, three independent experiments
Description: (§1) The in vitro cytotoxic potency of DHAA acyl-thiourea derivatives 8a–8o and 9a–9o were evaluated by 3-(4,5-dimethylthiazol-2-yl)-2,5-diphenyltetrazolium bromide (MTT) assay against HeLa, SK-OV-3 and MGC-803 tumor cell lines, with 5-FU as the positive control.
(§2) General procedure for cytotoxic evaluation in vitro: HeLa, HepG2, SK-OV-3 and MGC-803 cells were seeded into 96-well microculture plates and allowed to adhere for 24 h, respectively. After cells were exposed to compounds at concentrations from 100 to 0.01 μM for 48 h, medium was aspirated and replenished with complete medium. IC50 was evaluated by MTT tetrazolium dye assay. Each experiment was performed three times; Statistical analysis: All statistical analysis was performed with SPSS Version 10 (SPSS, Chicago, IL, USA). Data was analyzed by one-way ANOVA. Mean separations were performed using the least significant difference method. Each experiment was replicated thrice, and all experiments yielded similar results. Measurements from all the replicates were combined, and treatment effects were analyzed.

MGC-803 = assay: MTT cytotoxicity assay, MGC-803; conditions: Homo sapiens, 48 h, mean ± SD, three independent experiments
Description: as §1, §2

SK-OV-3 = assay: MTT cytotoxicity assay, SK-OV-3; conditions: Homo sapiens, 48 h, mean ± SD, three independent experiments
Description: as §1, §2

HL-7702 = assay: MTT cytotoxicity assay, HL-7702 normal cells; conditions: L02, 48 h, normal human cells, mean ± SD, three independent experiments
Description: [The source words this procedure for another cell line and reports this cell line under the same test.] as §1, §2

SMILES | IC50 (HeLa) [µM] | IC50 (MGC-803) [µM] | IC50 (SK-OV-3) [µM] | IC50 (HL-7702) [µM]
O=c1[nH]cc(F)c(=O)[nH]1 [Compound 5-FU, 5-fluorouracil, reference compound] | 36.6 ± 1.55 | 34.9 ± 1.75 | 30.2 ± 1.13 | –
CC(C)c1ccc2c(c1)CCC1[C@](C)(C(=O)NC(=S)N[C@H](C)C(=O)Nc3ccccc3)CCC[C@]21C (stereo partly drawn) [Compound 8a, (1R,4aS)-7-Isopropyl-1,4a-dimethyl-N-(((R)-1-oxo-1-(phenylamino)propan-2-yl)carbamothioyl)-1,2,3,4,4a,9,10,10a-octahydrophenanthrene-1-carboxamide] | 31.1 ± 2.13 | 28.5 ± 1.79 | 26.5 ± 2.53 | 47.6 ± 2.43
Cc1ccccc1NC(=O)[C@@H](C)NC(=S)NC(=O)[C@]1(C)CCC[C@]2(C)c3ccc(C(C)C)cc3CCC12 (stereo partly drawn) [Compound 8b, (1R,4aS)-7-Isopropyl-1,4a-dimethyl-N-(((R)-1-oxo-1-(o-tolylamino)propan-2-yl)carbamothioyl)-1,2,3,4,4a,9,10,10a-octahydrophenanthrene-1-carboxamide] | 29.2 ± 2.43 | 19.2 ± 1.66 | 42.8 ± 1.42 | 52.5 ± 1.25
Cc1ccc(NC(=O)[C@@H](C)NC(=S)NC(=O)[C@]2(C)CCC[C@]3(C)c4ccc(C(C)C)cc4CCC23)cc1 (stereo partly drawn) [Compound 8c, (1R,4aS)-7-Isopropyl-1,4a-dimethyl-N-(((R)-1-oxo-1-(p-tolylamino)propan-2-yl)carbamothioyl)-1,2,3,4,4a,9,10,10a-octahydrophenanthrene-1-carboxamide] | 38.7 ± 3.65 | 24.9 ± 1.64 | 50.9 ± 4.11 | 61.7 ± 3.41
CC(C)c1ccc2c(c1)CCC1[C@](C)(C(=O)NC(=S)N[C@H](C)C(=O)Nc3ccccc3Cl)CCC[C@]21C (stereo partly drawn) [Compound 8d, (1R,4aS)-N-(((R)-1-((2-Chlorophenyl)amino)-1-oxopropan-2-yl)carbamothioyl)-7-isopropyl-1,4a-dimethyl-1,2,3,4,4a,9,10,10a-octahydrophenanthrene-1-carboxamide] | 19.7 ± 1.23 | 20.6 ± 1.57 | 48.3 ± 4.21 | 69.4 ± 4.23
CC(C)c1ccc2c(c1)CCC1[C@](C)(C(=O)NC(=S)N[C@H](C)C(=O)Nc3ccc(Cl)cc3)CCC[C@]21C (stereo partly drawn) [Compound 8e, (1R,4aS)-N-(((R)-1-((4-Chlorophenyl)amino)-1-oxopropan-2-yl)carbamothioyl)-7-isopropyl-1,4a-dimethyl-1,2,3,4,4a,9,10,10a-octahydrophenanthrene-1-carboxamide] | 36.1 ± 3.31 | 21.7 ± 1.69 | 36.1 ± 3.28 | 57.7 ± 3.66
COc1ccccc1NC(=O)[C@@H](C)NC(=S)NC(=O)[C@]1(C)CCC[C@]2(C)c3ccc(C(C)C)cc3CCC12 (stereo partly drawn) [Compound 8f, (1R,4aS)-7-Isopropyl-N-(((R)-1-((2-methoxyphenyl)amino)-1-oxopropan-2-yl)carbamothioyl)-1,4a-dimethyl-1,2,3,4,4a,9,10,10a-octahydrophenanthrene-1-carboxamide] | 28.1 ± 2.11 | 17.9 ± 1.73 | 23 ± 3.01 | 44.7 ± 3.34
COc1ccc(NC(=O)[C@@H](C)NC(=S)NC(=O)[C@]2(C)CCC[C@]3(C)c4ccc(C(C)C)cc4CCC23)cc1 (stereo partly drawn) [Compound 8g, (1R,4aS)-7-Isopropyl-N-(((R)-1-((4-methoxyphenyl)amino)-1-oxopropan-2-yl)carbamothioyl)-1,4a-dimethyl-1,2,3,4,4a,9,10,10a-octahydrophenanthrene-1-carboxamide] | 27.4 ± 2.43 | 18.6 ± 1.72 | 26.8 ± 2.47 | 43.6 ± 2.43
CC(C)c1ccc2c(c1)CCC1[C@](C)(C(=O)NC(=S)N[C@H](C)C(=O)Nc3ccccc3F)CCC[C@]21C (stereo partly drawn) [Compound 8h, (1R,4aS)-N-(((R)-1-((2-Fluorophenyl)amino)-1-oxopropan-2-yl)carbamothioyl)-7-isopropyl-1,4a-dimethyl-1,2,3,4,4a,9,10,10a-octahydrophenanthrene-1-carboxamide] | 23.3 ± 1.55 | 26.1 ± 2.37 | 31.8 ± 2.36 | 53.5 ± 2.35
CC(C)c1ccc2c(c1)CCC1[C@](C)(C(=O)NC(=S)N[C@H](C)C(=O)Nc3ccc(F)cc3)CCC[C@]21C (stereo partly drawn) [Compound 8i, (1R,4aS)-N-(((R)-1-((4-Fluorophenyl)amino)-1-oxopropan-2-yl)carbamothioyl)-7-isopropyl-1,4a-dimethyl-1,2,3,4,4a,9,10,10a-octahydrophenanthrene-1-carboxamide] | 30.2 ± 2.55 | 29.4 ± 2.77 | 32.5 ± 2.64 | 54.5 ± 2.34
CC(C)c1ccc2c(c1)CCC1[C@](C)(C(=O)NC(=S)N[C@H](C)C(=O)Nc3ccccc3Br)CCC[C@]21C (stereo partly drawn) [Compound 8j, (1R,4aS)-N-(((R)-1-((2-Bromophenyl)amino)-1-oxopropan-2-yl)carbamothioyl)-7-isopropyl-1,4a-dimethyl-1,2,3,4,4a,9,10,10a-octahydrophenanthrene-1-carboxamide] | 22.8 ± 1.55 | 27.9 ± 3.26 | 39.1 ± 3.56 | 59.6 ± 3.54
CC(C)c1ccc2c(c1)CCC1[C@](C)(C(=O)NC(=S)N[C@H](C)C(=O)Nc3ccc(Br)cc3)CCC[C@]21C (stereo partly drawn) [Compound 8k, (1R,4aS)-N-(((R)-1-((4-Bromophenyl)amino)-1-oxopropan-2-yl)carbamothioyl)-7-isopropyl-1,4a-dimethyl-1,2,3,4,4a,9,10,10a-octahydrophenanthrene-1-carboxamide] | 19 ± 1.46 | 30 ± 1.24 | 40.8 ± 3.57 | 54.6 ± 3.65
Cc1cc(C)cc(NC(=O)[C@@H](C)NC(=S)NC(=O)[C@]2(C)CCC[C@]3(C)c4ccc(C(C)C)cc4CCC23)c1 (stereo partly drawn) [Compound 8l, (1R,4aS)-N-(((R)-1-((3,5-Dimethylphenyl)amino)-1-oxopropan-2-yl)carbamothioyl)-7-isopropyl-1,4a-dimethyl-1,2,3,4,4a,9,10,10a-octahydrophenanthrene-1-carboxamide] | 18.6 ± 1.24 | 13.9 ± 1.32 | 33 ± 2.59 | 55.3 ± 2.65
CC(C)c1ccc2c(c1)CCC1[C@](C)(C(=O)NC(=S)N[C@H](C)C(=O)Nc3cccc4ccccc34)CCC[C@]21C (stereo partly drawn) [Compound 8m, (1R,4aS)-7-Isopropyl-1,4a-dimethyl-N-(((R)-1-(naphthalen-1-ylamino)-1-oxopropan-2-yl)carbamothioyl)-1,2,3,4,4a,9,10,10a-octahydrophenanthrene-1-carboxamide] | 46.6 ± 4.77 | 36.5 ± 3.24 | 49.4 ± 4.64 | 59.5 ± 4.65
CC(C)c1ccc2c(c1)CCC1[C@](C)(C(=O)NC(=S)N[C@H](C)C(=O)Nc3ccccn3)CCC[C@]21C (stereo partly drawn) [Compound 8n, (1R,4aS)-7-Isopropyl-1,4a-dimethyl-N-(((R)-1-oxo-1-(pyridin-2-ylamino)propan-2-yl)carbamothioyl)-1,2,3,4,4a,9,10,10a-octahydrophenanthrene-1-carboxamide] | 14.3 ± 1.33 | 19.3 ± 1.32 | 25.2 ± 2.43 | 48.8 ± 2.44
COc1cc(NC(=O)[C@@H](C)NC(=S)NC(=O)[C@]2(C)CCC[C@]3(C)c4ccc(C(C)C)cc4CCC23)cc(OC)c1OC (stereo partly drawn) [Compound 8o, (1R,4aS)-7-Isopropyl-1,4a-dimethyl-N-(((R)-1-oxo-1-((3,4,5-trimethoxyphenyl)amino)propan-2-yl)carbamothioyl)-1,2,3,4,4a,9,10,10a-octahydrophenanthrene-1-carboxamide] | 18.1 ± 1.23 | 22.7 ± 1.77 | 29.6 ± 2.67 | 49.2 ± 2.65
CC(C)c1ccc2c(c1)CCC1[C@](C)(C(=O)NC(=S)N[C@H](Cc3ccccc3)C(=O)Nc3ccccc3)CCC[C@]21C (stereo partly drawn) [Compound 9a, (1R,4aS)-7-Isopropyl-1,4a-dimethyl-N-(((R)-1-oxo-3-phenyl-1-(phenylamino)propan-2-yl)carbamothioyl)-1,2,3,4,4a,9,10,10a-octahydrophenanthrene-1-carboxamide] | 25.7 ± 2.23 | 26.6 ± 3.25 | 17 ± 1.13 | 37.5 ± 1.44
Cc1ccccc1NC(=O)[C@@H](Cc1ccccc1)NC(=S)NC(=O)[C@]1(C)CCC[C@]2(C)c3ccc(C(C)C)cc3CCC12 (stereo partly drawn) [Compound 9b, (1R,4aS)-7-Isopropyl-1,4a-dimethyl-N-(((R)-1-oxo-3-phenyl-1-(o-tolylamino)propan-2-yl)carbamothioyl)-1,2,3,4,4a,9,10,10a-octahydrophenanthrene-1-carboxamide] | 17.7 ± 1.34 | 14.1 ± 1.12 | 18.5 ± 1.44 | 38.6 ± 1.65
Cc1ccc(NC(=O)[C@@H](Cc2ccccc2)NC(=S)NC(=O)[C@]2(C)CCC[C@]3(C)c4ccc(C(C)C)cc4CCC23)cc1 (stereo partly drawn) [Compound 9c, (1R,4aS)-7-Isopropyl-1,4a-dimethyl-N-(((R)-1-oxo-3-phenyl-1-(p-tolylamino)propan-2-yl)carbamothioyl)-1,2,3,4,4a,9,10,10a-octahydrophenanthrene-1-carboxamide] | 19.1 ± 1.08 | 19.2 ± 1.66 | 16.2 ± 1.98 | 36.2 ± 1.39
CC(C)c1ccc2c(c1)CCC1[C@](C)(C(=O)NC(=S)N[C@H](Cc3ccccc3)C(=O)Nc3ccccc3Cl)CCC[C@]21C (stereo partly drawn) [Compound 9d, (1R,4aS)-N-(((R)-1-((2-Chlorophenyl)amino)-1-oxo-3-phenylpropan-2-yl)carbamothioyl)-7-isopropyl-1,4a-dimethyl-1,2,3,4,4a,9,10,10a-octahydrophenanthrene-1-carboxamide] | 17 ± 1.76 | 20.4 ± 3.41 | 16.9 ± 1.43 | 36.5 ± 1.43
CC(C)c1ccc2c(c1)CC[C@H]1[C@](C)(C(=O)O)CCC[C@]21C [DHA, dehydroabietic acid] | 30.4 ± 3.45 | > 100 | 87.5 ± 4.12 | –
